Results reported in patent US10130668B2, “Composition comprising Dendropanax morbifera extract or compound derived therefrom as active ingredient for preventing and treating benign prostatic hyperplasia” (priority 2012, dated 2018).
Where “and” joins values, the source holds several entries; their conditions need not be identical. Equal values may be shown once. Entries after “also recorded” stand apart in the source; their conditions may differ.

Assays:
[1] = test system: PSA (prostate specific antigen); test: PSA content in blood of benign prostatic hyperplasia animal model (ELISA); assay type: in vivo, Sprague Dawley mice; settings: TP + drug 2 mg/kg
From the text: First of all, the animals used for experiments were 11-week old male Sprague Dawley mice, which were purchased from Damul Science Co. (Daejeon, Republic of Korea). They were provided with hard food and water frequently and were used in experiments after a week of adaptation period for laboratory environment and the animal experiments conducted herein were approved by Chonnam National University animal experiment ethics committee (IRB) (CNU IACUC-YB-R-2012-9).
The male Sprague Dawley mice were divided into the groups such as vehicle control group (V-CTL) that is an experimental group, the group administered with testosterone only (TP-CTL), the group administered with finasteride as positive control for testosterone (TP+FS) and the groups administered with Dendropanax morbifera (TP+DMH), and for each group, n was equal to 4 and overall experimental procedure is as illustrated in Table 3. […] As a positive control group, the finasteride (2 mg/kg/day) was used and the Dendropanax morbifera extract was administered for 2 groups (0.5 and 2 mg/kg).
From the sacrificed mouse in the above example, the plasma was isolated from blood and the content of PSA was determined. PSA measurement was conducted using ELISA (MyBiosource, Arizona, USA) according to the manufacturer's experimental protocol and presented as pg/mL content.

[2] = test system: mouse model with benign prostatic hyperplasia; test: Prostate size in testosterone-induced benign prostatic hyperplasia animal model; assay type: in vivo, Sprague Dawley mice
Description: First of all, the animals used for experiments were 11-week old male Sprague Dawley mice, which were purchased from Damul Science Co. (Daejeon, Republic of Korea). […] As a positive control group, the finasteride (2 mg/kg/day) was used and the Dendropanax morbifera extract was administered for 2 groups (0.5 and 2 mg/kg). 3 weeks after the drug administration, the mice were sacrificed and the results were observed. V, vehicle administration group; CTL, control group; TP, testosterone-propionate administration group; FS, finasteride administration group; […] CMC, carboxymethylcellulose administration group. […] From the previously described experiment schedule, blood and prostate were collected after measuring the body weight and sacrificing on the day after the last day of administration. The weight of removed prostate was measured after removing the surrounding fats and foreign substances and the weight ratio of prostate to body was calculated by the following equation and the result is listed in Table 4.

[3] = test system: PSA (prostate specific antigen) mRNA, AR target gene; test: PSA mRNA expression in LNCaP⋅FGC cells; settings: 48 hours
Description: For the analysis of anti-androgen activity, the LNCaP⋅FGC cells, an androgen-dependent prostate cancer cell line, were used and the level of mRNA of PSA (Prostate specific antigen), which is one of the AR target genes, in prostate cancer was measured.

`CC(C)(C)NC(=O)[C@H]1CC[C@H]2[C@@H]3CC[C@H]4NC(=O)C=C[C@]4(C)[C@H]3CC[C@]12C` [FS, finasteride] was tested, and the “% Vehicle control” value ([1]; blood PSA) was 18.7 ± 5.0%, the “% TP control” value ([1]; blood PSA, relative to TP (3 mg/kg) only) was 34.6% and the PSA ([1]; plasma) was “*323.0 ± 85.0 pg/mL”. For the same molecule, the Weight of prostate ([2]; TP 3 mg/kg s.c. + drug 2 mg/kg p.o. daily for 3 weeks) was 0.95 ± 0.12 g, the “prostate %/body weight (w/w)” value ([2]; TP + drug 2 mg/kg p.o.) was “*0.22 ± 0.018%” and the “% TP-CTL ratio” value ([2]; TP + drug 2 mg/kg p.o., relative to testosterone-only control) was 74.3% and 74.3 ± 3.2%. The “% V-CTL ratio” value ([2]; TP + drug 2 mg/kg p.o., relative to vehicle control) was 185.7 ± 15.1%.

With `C=C[C@H](O)C#CC#CC=CC(O)CCCCCCCC(=O)O` (stereo partly drawn) [HS3, 9,16S-dihydroxy-10,17-octadecadiene-12,14-diynoic acid] the “mRNA expression of PSA” value [3] was “inhibit”.

In the case of `C=CC(O)C#CC#CC=C[C@H](O)CCCCCCCC(=O)O` (stereo partly drawn) [HS5, 9,16R-dihydroxy-10,17-octadecadiene-12,14-diynoic acid], the “mRNA expression of PSA” value [3] is reported as “inhibit”.

With `C=CC(O)C#CC#CC/C=C\CCCCCCCC(=O)O` (stereo not shown) [HS7, (9Z)-16-hydroxy-9,17-octadecadiene-12,14-diynoic acid] the “mRNA expression of PSA” value [3] was “inhibit; also recorded: most effective”.
